Data set [1] in a line: in vivo. Particulars: rhesus monkey, sc, 3 mg/kg. How it is done:
(§1) A single-cycle infection assay was performed to determine the inhibitory activity of the monkey sera on HIV-1NL4-3 pseudovirus. The 50% effective concentration was defined as the fold serum dilution that inhibited 50% of virus infection.

The subject of data set [2] is HIV-1NL4-3 pseudovirus. The data set can be described thus: Ex vivo inhibitory activity of sera from monkeys administrated LP-80 (single-cycle infection assay). It is filed as in vivo, Chinese rhesus macaques. Particulars: monkey sera after SC 3 mg/kg. How it is done:
as §1

For data set [3] the following is noted: rat, in vivo, sc, 6 mg/kg.
The conditions of data set [4]: Rat IV, 6 mg/kg, n = 6; serum, LC-MS/MS, non-compartmental.
Data set [5] is described as follows: in vivo. The settings on record: Sprague-Dawley, rat, 6 mg/kg.

Structures are written as SMILES. Where two headings read alike, the source gives them in different places. Peptide text beside a SMILES is read from it. * marks the point of attachment. Stearoyl = CCCCCCCCCCCCCCCCCC(=O)*

In data set [1], `CCCCCCCCCCCCCCCCCC(=O)NCCCC[C@H](NC(=O)[C@H](CCC(=O)O)NC(=O)[C@H](CC(C)C)NC(=O)[C@H](CCCCN)NC(=O)[C@H](CCCCN)NC(=O)[C@H](CC(C)C)NC(=O)[C@H](CCC(=O)O)NC(=O)[C@H](CCC(=O)O)NC(=O)[C@H](CCC(=O)O)NC(=O)[C@H](CC(N)=O)NC(=O)[C@H](CCCCN)NC(=O)[C@H](CCCCN)NC(=O)[C@H](CCC(N)=O)NC(=O)[C@H](CCC(N)=O)NC(=O)[C@H](CCC(=O)O)NC(=O)[C@H](CCC(=O)O)NC(=O)[C@H](C)NC(=O)[C@H](CCCCN)NC(=O)[C@H](CCCCN)NC(=O)[C@H](CC(C)C)NC(=O)[C@H](CC(C)C)NC(=O)[C@H](CCC(=O)O)NC(=O)[C@H](CCC(=O)O)NC(=O)[C@@H](NC(=O)[C@H](CCCCN)NC(=O)[C@H](CCC(N)=O)NC(=O)[C@H](CCC(=O)O)NC(=O)[C@H](Cc1c[nH]c2ccccc12)NC(C)=O)[C@@H](C)CC)C(N)=O` [LP-80] (Ac-WEQKIEELLKKAEEQQKKNEEELKKLEK(Stearoyl)-NH2) had an AUC(0-inf) of 601 ± 29.3 µg·h/mL, an AUC(0-t) of 601 ± 29.3 µg·h/mL, a CL/F of 0.0833 mL/min/kg and a Cmax of 24800 ± 10800 ng/mL. Moreover, in data set [1], the mean residence time MRT was found to be 23.7 ± 2.26 h, the Tmax was 5.83 ± 3.82 h, the Vd/F amounted to 0.0989 ± 0.0034 L/kg and the half-life was 13.7 ± 0.86 h. The “Time of peak serum inhibitory activity after injection” value in data set [2] lay in the range of 6 to 8 h. The molecule further yielded a Vd/F in data set [3] of 0.535 ± 0.251 L/kg. In data set [4], this molecule displayed a Cl_F_obs/Cl_obs of 0.3552 ± 0.0563 mL/min/kg. Further, the level at 72 h in data set [5] was around 7 ng/mL. In data set [5] (iv), this molecule showed an AUC(0-inf) of 288 ± 49.4 µg·h/mL, an AUC(0-t) of 288 ± 49.4 µg·h/mL, a Cmax of 53300 ± 10600 ng/mL and an MRT of 7.53 ± 0.85 h. Also, in data set [5] (iv), the Tmax was 0.08 h and the Vd was determined as 0.183 ± 0.0216 L/kg. Moreover, in data set [5] (sc), the AUC(0-inf) was found to be 114 ± 33.6 µg·h/mL, the AUC(0-t) worked out at 114 ± 33.6 µg·h/mL, the CL/F was 0.958 mL/min/kg and the concentration peaked (Cmax) at 7650 ± 1580 ng/mL. Further, in data set [5] (sc), the MRT turned out to be 9.73 ± 1.11 h and the Tmax came out at 4 ± 2.19 h.

Values taken from PMC6375636, “Monotherapy with a low-dose lipopeptide HIV fusion inhibitor maintains long-term viral suppression in rhesus macaques” (PLoS Pathogens, 2019).
